Laboratory results reported in ChEMBL document CHEMBL1201862, “PubChem BioAssay data set” (2004).
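Protocol summary: plate cells (96-well), add compound at 5 concentrations, incubate 48 h, interpolate endpoints linearly. GI50 = concentration required for 50% inhibition of growth.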 The source made the active and inactive calls. Rule as the data show it: active = GI50 up to about 1.1 µM and inactive = higher.

Tests used:
Assay in all cases: growth of human tumour cells (NCI), 48 h
COLO 205 = tested on: COLO 205
EKVX = tested on: EKVX
HCT-116 = tested on: HCT-116
HCT-15 = tested on: HCT-15
HOP-62 = tested on: HOP-62
HT-29 = tested on: HT-29
M14 = tested on: M14
MDA-MB-231 = tested on: MDA-MB-231
NCI-H226 = tested on: NCI-H226
NCI/ADR-RES = tested on: NCI/ADR-RES
OVCAR-5 = tested on: OVCAR-5
OVCAR-8 = tested on: OVCAR-8
RPMI-8226 = tested on: RPMI-8226
SF-268 = tested on: SF-268
SF-539 = tested on: SF-539
SK-MEL-28 = tested on: SK-MEL-28
SW-620 = tested on: SW-620
UACC-257 = tested on: UACC-257
UACC-62 = tested on: UACC-62
UO-31 = tested on: UO-31

| Compound | GI50 (COLO 205) | GI50 (EKVX) | GI50 (HCT-116) | GI50 (HCT-15) | GI50 (HOP-62) | GI50 (HT-29) | GI50 (M14) | GI50 (MDA-MB-231) | GI50 (NCI-H226) | GI50 (NCI/ADR-RES) | GI50 (OVCAR-5) | GI50 (OVCAR-8) | GI50 (RPMI-8226) | GI50 (SF-268) | GI50 (SF-539) | GI50 (SK-MEL-28) | GI50 (SW-620) | GI50 (UACC-257) | GI50 (UACC-62) | GI50 (UO-31) |
| --- | --- | --- | --- | --- | --- | --- | --- | --- | --- | --- | --- | --- | --- | --- | --- | --- | --- | --- | --- | --- |
| CS(=O)(=O)OCCCCOS(C)(=O)=O [BUSULFAN] | 222 µM (inactive) | > 201 µM (inactive) | 238 µM (inactive) | 219 µM | 187 µM (inactive) | 247 µM (inactive) | 236 µM (inactive) | > 1000 µM (inactive) | 237 µM (inactive) | 217 µM (inactive) | > 250 µM (inactive) | 237 µM (inactive) | 237 µM (inactive) | 179 µM (inactive) | 233 µM (inactive) | 203 µM (inactive) | 224 µM (inactive) | 183 µM (inactive) | 187 µM (inactive) | 244 µM (inactive) |
| CC(C)(C)OC(=O)NC1CCCCC1NC(=O)C(=O)NC1CCCCC1NC(=O)OC(C)(C)C (stereo not given) | > 100 µM (inactive) | > 100 µM (inactive) | 78.2 µM (inactive) | > 100 µM | 19.3 µM (inactive) | > 100 µM (inactive) | > 100 µM (inactive) | 27.2 µM (inactive) | > 100 µM (inactive) | > 100 µM (inactive) | > 100 µM (inactive) | > 100 µM (inactive) | > 100 µM (inactive) | 37.2 µM (inactive) | 45.4 µM (inactive) | > 100 µM (inactive) | > 100 µM (inactive) | > 100 µM (inactive) | 24 µM (inactive) | > 100 µM (inactive) |
| Cc1c(N)nc([C@H](CC(N)=O)NC[C@H](N)C(N)=O)nc1C(=O)N[C@H](C(=O)N[C@H](C)[C@@H](O)CC(=O)N[C@H](C(=O)NC(O[C@@H]1O[C@@H](C)[C@@H](N)[C@@H](O)[C@H]1O)C(O)c1nc(-c2nc(C(=O)NCCC[S+](C)C)cs2)cs1)[C@@H](C)O)[C@H](O[C@@H]1O[C@@H](CO)[C@@H](O)[C@H](O)[C@@H]1O[C@H]1O[C@H](CO)[C@@H](O)[C@H](OC(N)=O)[C@@H]1O)c1c[nH]cn1 (stereo not given in full) | > 100 µM (inactive) | > 100 µM (inactive) | 15.1 µM (inactive) | 34.4 µM | 5.18 µM (inactive) | 82.8 µM (inactive) | > 100 µM (inactive) | > 100 µM (inactive) | 21 µM (inactive) | 33.3 µM (inactive) | > 100 µM (inactive) | 48.9 µM (inactive) | > 100 µM (inactive) | 39.2 µM (inactive) | 2.2 µM (inactive) | > 100 µM (inactive) | > 100 µM (inactive) | > 100 µM (inactive) | 35.4 µM (inactive) | 26.7 µM (inactive) |
| COc1cc2c(cc1OC)C(c1ccccc1CCCCl)=NCC2 | 40 µM (inactive) | 90.2 µM (inactive) | 45.9 µM (inactive) | > 100 µM | > 100 µM (inactive) | 44.2 µM (inactive) | > 100 µM (inactive) | > 100 µM (inactive) | 80.4 µM (inactive) | > 100 µM (inactive) | > 100 µM (inactive) | 97.5 µM (inactive) | 14.3 µM (inactive) | 58.2 µM (inactive) | > 100 µM (inactive) | 19.1 µM (inactive) | 25.6 µM (inactive) | 53.1 µM (inactive) | 40.9 µM (inactive) | 85.9 µM (inactive) |
| O=[N+]([O-])c1ccc(-n2nc3ccc4c(no[n+]4[O-])c3[n+]2[O-])c([N+](=O)[O-])c1 | 1.54 µM (inactive) | 12.2 µM (inactive) | 1.91 µM (inactive) | 2.69 µM | 3.77 µM (inactive) | 4.69 µM (inactive) | 1.59 µM (inactive) | 2.27 µM (inactive) | 8.24 µM (inactive) | 3.16 µM (inactive) | 6.41 µM (inactive) | 2.4 µM (inactive) | 2.29 µM (inactive) | 5.05 µM (inactive) | 6.15 µM (inactive) | 2.51 µM (inactive) | 2.1 µM (inactive) | 1.75 µM (inactive) | 2.73 µM (inactive) | 5.27 µM (inactive) |
| C[C@H]1C2Cc3cc(O)ccc3[C@@]1(C)CCN2CCc1ccc(N)cc1 | 28.6 µM (inactive) | > 100 µM (inactive) | 15.9 µM (inactive) | 18.2 µM | 8.69 µM (inactive) | 15.5 µM (inactive) | 18.4 µM (inactive) | 34.9 µM (inactive) | > 100 µM (inactive) | 25.7 µM (inactive) | > 100 µM (inactive) | 7.98 µM (inactive) | 28.4 µM (inactive) | 19.6 µM (inactive) | 16.7 µM (inactive) | 18.6 µM (inactive) | 15.3 µM (inactive) | 18.6 µM (inactive) | > 100 µM (inactive) | 37.2 µM (inactive) |
| CC(C)(C)CC(C)(C)N/C(N)=N/O | > 100 µM (inactive) | > 89.5 µM (inactive) | 9.71 µM (inactive) | 56.1 µM | > 100 µM (inactive) | > 100 µM (inactive) | > 100 µM (inactive) | > 100 µM (inactive) | 58.5 µM (inactive) | 97.3 µM (inactive) | > 100 µM (inactive) | > 80 µM (inactive) | > 100 µM (inactive) | > 89.3 µM (inactive) | > 60.8 µM (inactive) | > 100 µM (inactive) | > 100 µM (inactive) | 41.4 µM (inactive) | > 100 µM (inactive) | > 21.7 µM (inactive) |
| O=[N+]([O-])c1ccc2c(c1)c(S(=O)(=O)O)cc1nonc12 | > 100 µM (inactive) | > 100 µM (inactive) | > 100 µM (inactive) | > 100 µM | > 100 µM (inactive) | > 100 µM (inactive) | > 100 µM (inactive) | > 100 µM (inactive) | > 100 µM (inactive) | > 100 µM (inactive) | > 100 µM (inactive) | > 100 µM (inactive) | > 100 µM (inactive) | > 100 µM (inactive) | > 100 µM (inactive) | > 100 µM (inactive) | > 100 µM (inactive) | > 100 µM (inactive) | > 100 µM (inactive) | > 100 µM (inactive) |
| CCCC1(N)CC(OC)OC(C)C1O (stereo not given) | > 100 µM (inactive) | > 100 µM (inactive) | > 100 µM (inactive) | > 100 µM | > 100 µM (inactive) | > 100 µM (inactive) | > 100 µM (inactive) | > 100 µM (inactive) | > 100 µM (inactive) | > 100 µM (inactive) | > 100 µM (inactive) | > 100 µM (inactive) | > 100 µM (inactive) | > 100 µM (inactive) | > 100 µM (inactive) | > 100 µM (inactive) | > 100 µM (inactive) | > 100 µM (inactive) | > 100 µM (inactive) | > 100 µM (inactive) |
| CC(C(O)c1ccccc1)[N+](=O)[O-] (stereo not given) | 22.4 µM (inactive) | 30 µM (inactive) | 37.6 µM (inactive) | 11.5 µM | 25.3 µM (inactive) | 27.2 µM (inactive) | 6.43 µM (inactive) | 26.5 µM (inactive) | 24.4 µM (inactive) | 28.1 µM (inactive) | 24.1 µM (inactive) | 16.4 µM (inactive) | 2.9 µM (inactive) | 31.5 µM (inactive) | 20.3 µM (inactive) | 19.8 µM (inactive) | 8.81 µM (inactive) | 16.8 µM (inactive) | 20.2 µM (inactive) | 7.69 µM (inactive) |
| COc1cc(C(O)c2ccc3c(c2)OCO3)cc(OC)c1OC (stereo not given) | > 100 µM (inactive) | > 100 µM (inactive) | > 100 µM (inactive) | > 100 µM | > 100 µM (inactive) | > 100 µM (inactive) | > 100 µM (inactive) | > 100 µM (inactive) | > 100 µM (inactive) | > 100 µM (inactive) | > 100 µM (inactive) | > 100 µM (inactive) | > 100 µM (inactive) | > 100 µM (inactive) | > 100 µM (inactive) | > 100 µM (inactive) | > 100 µM (inactive) | > 100 µM (inactive) | > 100 µM (inactive) | 61.2 µM (inactive) |
| CC(CCC(=O)O)[C@H]1CCC2[C@H]3C(CC(=O)[C@@]21C)[C@@]1(C)CCC(O)C[C@H]1C[C@@H]3O (stereo not given in full) | > 100 µM (inactive) | > 100 µM (inactive) | > 100 µM (inactive) | > 100 µM | > 100 µM (inactive) | > 100 µM (inactive) | > 100 µM (inactive) | > 100 µM (inactive) | > 100 µM (inactive) | > 100 µM (inactive) | > 100 µM (inactive) | > 100 µM (inactive) | > 100 µM (inactive) | > 100 µM (inactive) | > 100 µM (inactive) | > 100 µM (inactive) | > 100 µM (inactive) | > 100 µM (inactive) | > 100 µM (inactive) | > 100 µM (inactive) |
| C/C(=N\NC(N)=S)c1nc2cccnc2[nH]1 | 38.8 µM (inactive) | 50 µM (inactive) | 54 µM (inactive) | 53.6 µM | 67.3 µM (inactive) | 41.3 µM (inactive) | 63.1 µM (inactive) | > 70.1 µM (inactive) | > 56 µM (inactive) | 38.5 µM (inactive) | 47.1 µM (inactive) | > 67 µM (inactive) | > 96.6 µM (inactive) | 57.7 µM (inactive) | 58.9 µM (inactive) | > 88.9 µM (inactive) | 56.8 µM (inactive) | > 88.5 µM (inactive) | 47.2 µM (inactive) | 24.9 µM (inactive) |
| COc1cc2c(cc1O)Cc1c-2[n+](C)cc2cc(OC)c(OC)cc12 | > 74.3 µM (inactive) | > 90.8 µM (inactive) | 15.3 µM (inactive) | 24.4 µM | 6.61 µM (inactive) | > 83 µM (inactive) | 7.19 µM (inactive) | > 100 µM (inactive) | > 59 µM (inactive) | 6.79 µM (inactive) | > 100 µM (inactive) | 2.72 µM (inactive) | 9.14 µM (inactive) | 0.472 µM (active) | 1.82 µM (inactive) | > 89.9 µM (inactive) | 33.4 µM (inactive) | > 68.9 µM (inactive) | 7.43 µM (inactive) | 8.53 µM (inactive) |
